The source of these data is ChEMBL document CHEMBL5143624, “WCK 1152, WCK 1153: Discovery and structure activity relationship for the treatment of resistant pneumococcal and staphylococcal respiratory infections” (Bioorg Med Chem Lett, 2022).

In test [1] the test system is Staphylococcus aureus. In words: Antibacterial activity against methicillin resistant Staphylococcus aureus assessed as inhibition of bacterial growth incubated for 18 hrs by CLSI based serial agar dilution method. The class given is functional.
In test [2] the test system is Streptococcus pneumoniae. In words: Antibacterial activity against Streptococcus pneumoniae assessed as inhibition of bacterial growth incubated for 18 hrs by CLSI based serial agar dilution method. In kind it is functional. For orientation: In agar dilution, organisms are placed on agar that contains the substance at set levels.
Test [3] relates to Streptococcus pneumoniae. In words: Antibacterial activity against fluoroquinolone efflux positive Streptococcus pneumoniae 706 assessed as inhibition of bacterial growth incubated for 18 hrs by CLSI based serial agar dilution method. The class given is functional.
Test [4] deals with Streptococcus pneumoniae. In words: Antibacterial activity against beta-lactams, macrolide and fluoroquinolone resistant Streptococcus pneumoniae 718 infected in po dosed Swiss mouse septicemia model assessed as protective dose administered on 1 and 5 hrs post infection and measured on day 7. The class given is functional, organism-based.
For test [5], the system named is Staphylococcus aureus. Kind of test: Antibacterial activity against methicillin resistant Staphylococcus aureus 032 assessed as inhibition of bacterial growth incubated for 18 hrs by CLSI based serial agar dilution method. The class given is functional.
Test [6] has as its system Streptococcus pneumoniae. Kind of test: Antibacterial activity against beta-lactams, macrolide and fluoroquinolone resistant Streptococcus pneumoniae 718 assessed as inhibition of bacterial growth incubated for 18 hrs by CLSI based serial agar dilution method. The class given is functional.
Setting [7] is: Staphylococcus aureus, read-out: MIC.
[8] abbreviates: Streptococcus pneumoniae, 18 h, read-out: MIC.
Where [9] appears, read: Staphylococcus aureus, 032, 18 h, read-out: MIC.
Where [10] appears, read: Streptococcus pneumoniae, 718, 18 h, read-out: MIC.

As a reminder, the MIC is the smallest concentration in the dilution series that meets the test's criterion for growth inhibition.

SMILES strings stand for the structures. Converted amounts (≈) assume the structure as drawn.

As for `CC1(C)CN(c2c(F)c(N)c3c(=O)c(C(=O)O)cn(C4CC4)c3c2F)CCC1N` (stereo not given), the MIC was 3.12 µg/mL (≈ 7.68 µM) with Staphylococcus aureus [1] (setting [7]) and 0.1 µg/mL (≈ 0.246 µM) with Streptococcus pneumoniae [2] (setting [8]).
Turning to `CNC1CCN(c2c(F)cc3c(=O)c(C(=O)O)cn(C4CC4)c3c2OC)CC1C` (stereo not given), the MIC amounted to 0.2 µg/mL (≈ 0.496 µM) in the test on Staphylococcus aureus [1] (setting [7]) and 1.56 µg/mL (≈ 3.87 µM) in the test on Streptococcus pneumoniae [2] (setting [8]).
Regarding `CCC1CN(c2c(F)cc3c(=O)c(C(=O)O)cn(C4CC4)c3c2OC)CCC1NC` (stereo not given), the MIC with Staphylococcus aureus [1] (setting [7]) was 0.2 µg/mL (≈ 0.479 µM); in the test with Streptococcus pneumoniae [2] (setting [8]), 1.56 µg/mL (≈ 3.74 µM).
Turning to `CC1(C)CN(c2cc3c(cc2F)c(=O)c(C(=O)O)cn3C2CC2)CCC1N` (stereo not given), the MIC in the test with Staphylococcus aureus [1] (setting [7]) worked out at 12.5 µg/mL (≈ 33.5 µM); in the test with Streptococcus pneumoniae [2] (setting [8]), 0.8 µg/mL (≈ 2.14 µM).
Taken in the same sequence, the figures for `COc1c(N2CCC(N(C)C)C(C)(C)C2)c(F)cc2c(=O)c(C(=O)O)cn(C3CC3)c12` (stereo not given) were 0.2 µg/mL (≈ 0.463 µM) and 0.4 µg/mL (≈ 0.927 µM).
For `COc1c(N2CCC(N)C(C)C2)c(F)cc2c(=O)c(C(=O)O)cn(C3CC3)c12` (stereo not given) the same measures were 0.05 µg/mL (≈ 0.128 µM) and 0.2 µg/mL (≈ 0.514 µM).
As for `CCNC1CCN(c2c(F)cc3c(=O)c(C(=O)O)cn(C4CC4)c3c2OC)CC1(C)C` (stereo not given), the MIC in the test on Staphylococcus aureus [1] (setting [7]) came to 0.2 µg/mL (≈ 0.463 µM); with Streptococcus pneumoniae [2] (setting [8]) it was 1.56 µg/mL (≈ 3.62 µM); in the test on Streptococcus pneumoniae [3], 1.56 µg/mL (≈ 3.62 µM).
In the case of `COc1c(N2CC(C)C(N)C(C)C2)c(F)cc2c(=O)c(C(=O)O)cn(C3CC3)c12` (cis isomer), the MIC with Staphylococcus aureus [1] turned out to be 0.1 µg/mL (≈ 0.248 µM).
Take `Cc1c(N2CCC(N)C(C)C2)c(F)cc2c(=O)c(C(=O)O)cn(C3CC3)c12.Cl` (cis isomer): the EC50 with Streptococcus pneumoniae [4] was found to be 30 mg/kg.
Turning to `Cc1c(N2CCC(N)C(C)(C)C2)c(F)cc2c(=O)c(C(=O)O)cn(C3CC3)c12` (racemic), the MIC in the test with Staphylococcus aureus [5] (18 h) and in the test with Streptococcus pneumoniae [6] (18 h) was 1.56 µg/mL (≈ 4.03 µM) in each case.
Take `Cc1c(N2CCC(N)C(C)(C)C2)c(F)cc2c(=O)c(C(=O)O)cn(C3CC3)c12.Cl` (racemic): in the test on Streptococcus pneumoniae [4], the EC50 was found to be 30 mg/kg.
On to `Cc1c(N2CCC(O)C(C)(C)C2)c(F)cc2c(=O)c(C(=O)O)cn(C3CC3)c12.Cl` (racemic), for which the MIC in the test on Staphylococcus aureus [5] (setting [9]) and with Streptococcus pneumoniae [6] (setting [10]) was 0.8 µg/mL throughout.
As to `COc1c(N2CC(C)C(N)C(C)C2)c(F)cc2c(=O)c(C(=O)O)cn(C3CC3)c12` (stereo in doubt), the MIC in the test on Staphylococcus aureus [1] (setting [7]) and with Streptococcus pneumoniae [2] (setting [8]) was 0.1 µg/mL (≈ 0.248 µM) throughout.
Turning to `CCNC1C(C)CN(c2c(F)cc3c(=O)c(C(=O)O)cn(C4CC4)c3c2OC)CC1C` (stereo in doubt), the MIC was 0.2 µg/mL (≈ 0.463 µM) in the test with Staphylococcus aureus [1] and 1.56 µg/mL (≈ 3.62 µM) in the test with Streptococcus pneumoniae [2].
Consider `Cc1c(N2CCC(O)C(C)C2)c(F)cc2c(=O)c(C(=O)O)cn(C3CC3)c12` (stereo in doubt; form 1), for which the MIC in the test on Staphylococcus aureus [5] (setting [9]) and with Streptococcus pneumoniae [6] (setting [10]) was 0.2 µg/mL (≈ 0.534 µM) throughout.
Consider `COc1c(N2CC(C)C(N)C(C)C2)c(F)cc2c(=O)c(C(=O)O)cn(C3CC3)c12` (trans isomer), for which the MIC was 0.05 µg/mL (≈ 0.124 µM) with Staphylococcus aureus [1] and 0.2 µg/mL (≈ 0.496 µM) in the test with Streptococcus pneumoniae [2] (18 h).
With `CCNC1C(C)CN(c2c(F)cc3c(=O)c(C(=O)O)cn(C4CC4)c3c2OC)CC1C` (trans isomer), the values for the MIC with Staphylococcus aureus [1] and in the test on Streptococcus pneumoniae [2] (setting [8]) were 0.012 µg/mL (≈ 0.0278 µM) and 1.56 µg/mL (≈ 3.62 µM), respectively.
`Cc1c(N2CCC(N)C(C)C2)c(F)cc2c(=O)c(C(=O)O)cn(C3CC3)c12` (trans isomer): the MIC in the test on Staphylococcus aureus [5] (setting [9]) was 0.8 µg/mL (≈ 2.14 µM).
For `COc1c(N2CCNC(C)C2)c(F)cc2c(=O)c(C(=O)O)cn(C3CC3)c12` (stereo not given) [GATIFLOXACIN], the EC50 in the test on Streptococcus pneumoniae [4] is over 100 mg/kg.
For `C[C@H]1COc2c(N3CCN(C)CC3)c(F)cc3c(=O)c(C(=O)O)cn1c23.C[C@H]1COc2c(N3CCN(C)CC3)c(F)cc3c(=O)c(C(=O)O)cn1c23.O` [LEVOFLOXACIN], the MIC with Staphylococcus aureus [5] (setting [9]) stood at 6.25 µg/mL. Moreover, the EC50 in the test with Streptococcus pneumoniae [4] was over 100 mg/kg.
Consider `C[C@H]1CCc2c(N3CCC(O)CC3)c(F)cc3c(=O)c(C(=O)O)cn1c23` [LEVONADIFLOXACIN], for which the MIC with Staphylococcus aureus [1] (setting [7]) and with Streptococcus pneumoniae [2] (setting [8]) was 0.4 µg/mL (≈ 1.11 µM) throughout.
In the case of `CC1COc2c(N3CCN(C)CC3)c(F)cc3c(=O)c(C(=O)O)cn1c23` (stereo not given) [OFLOXACIN], the MIC in the test on Staphylococcus aureus [1] (setting [7]) and in the test with Streptococcus pneumoniae [2] (setting [8]) was 0.4 µg/mL (≈ 1.11 µM) each time.
